According to patent publication US20230002359A1, “PESTICIDALLY ACTIVE FUSED BICYCLIC HETEROAROMATIC COMPOUNDS” (priority 2019, published 2023):

Legend:
Format in all cases: in vivo
[1] = tested on: Diabrotica Balteata (Corn Root Worm); test: Example B1: Diabrotica balteata (corn root worm), maize sprouts sprayed, L2 larvae; conditions: 96 h, application rate of 200 ppm, 4 days after infestation, L2 larvae, read-out: control in at least one of the two categories (mortality or growth inhibition)
How it was run: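 Spray test: maize sprouts on agar, aqueous dilutions of 10′000 ppm DMSO stock; after drying, 6–10 L2 larvae/well. Read-out at 4 d post-infestation: mortality and growth inhibition vs untreated.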

[2] = tested on: Euschistus heros (Neotropical Brown Stink Bug); test: Example B2: Euschistus heros (neotropical brown stink bug), soybean leaves sprayed, N2 nymphs; conditions: 120 h, application rate of 200 ppm, 5 days after infestation, N2 nymphs, read-out: control in at least one of the two categories (mortality or growth inhibition)
Description: Soybean leaves on agar in 24-well microtiter plates were sprayed with aqueous test solutions prepared from 10′000 ppm DMSO stock solutions. After drying the leaves were infested with N2 nymphs. The samples were assessed for mortality and growth inhibition in comparison to untreated samples 5 days after infestation.

[3] = tested on: Chilo suppressalis (Striped Rice Stemborer); test: Example B3: Chilo suppressalis (striped rice stemborer), artificial diet, L2 larvae; conditions: 144 h, application rate of 200 ppm, 6 days after infestation, L2 larvae, read-out: control in at least one of the three categories (mortality, anti-feedant effect, or growth inhibition)
How it was run: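 Artificial diet treated with aqueous dilutions of DMSO stocks (10'000 ppm stock), dried, then infested with 6-8 L2 larvae per well. Mortality, anti-feeding and growth inhibition scored against untreated samples 6 days after infestation. Control counted when any category exceeds untreated.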

[4] = tested on: Plutella xylostella (Diamond Back Moth); test: Example B4: Plutella xylostella (diamond back moth), artificial diet, eggs, 24-well; conditions: 192 h, application rate of 200 ppm, 8 days after infestation, eggs, read-out: control in at least one of the two categories (mortality or growth inhibition)
Description: 24-well microtiter plates with artificial diet were treated with aqueous test solutions prepared from 10′000 ppm DMSO stock solutions by pipetting. After drying, Plutella eggs were pipetted through a plastic stencil onto a gel blotting paper and the plate was closed with it. The samples were assessed for mortality and growth inhibition in comparison to untreated samples 8 days after infestation.

[5] = tested on: Myzus persicae (Green Peach Aphid); test: Example B5: Myzus persicae (green peach aphid) feeding/contact activity, sunflower leaf discs; conditions: foliar, 144 h, application rate of 200 ppm, 6 days after infestation
Description: Sunflower leaf discs were placed onto agar in a 24-well microtiter plate and sprayed with aqueous test solutions prepared from 10′000 ppm DMSO stock solutions. After drying, the leaf discs were infested with an aphid population of mixed ages. The samples were assessed for mortality 6 days after infestation.

[6] = tested on: Myzus persicae (Green Peach Aphid); test: Example B6: Myzus persicae (green peach aphid) intrinsic activity, sucrose solution; conditions: 120 h, test rate of 12 ppm, 5 days after infestation, intrinsic activity, read-out: mortality
How it was run: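 Mortality was read 5 days after infestation. Aphids on pea seedlings fed through a stretched Parafilm membrane on inverted 24-well plates containing sucrose solution mixed with test compound, which was diluted from 10′000 ppm DMSO stock.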

[7] = tested on: Spodoptera littoralis (Egyptian Cotton Leaf Worm); test: Example B7: Spodoptera littoralis (Egyptian cotton leaf worm), cotton leaf discs sprayed, L1 larvae; conditions: foliar, 72 h, application rate of 200 ppm, 3 days after infestation, L1 larvae, read-out: control in at least one of the three categories (mortality, anti-feedant effect, or growth inhibition)
How it was run: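 Read-out: mortality, feeding deterrence and growth inhibition, assessed 3 days after infestation relative to untreated samples. Sprayed, dried cotton leaf discs on agar each received five first-instar (L1) larvae; sprays were aqueous solutions prepared from 10′000 ppm DMSO stocks.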

[8] = tested on: Spodoptera littoralis (Egyptian Cotton Leaf Worm); test: Example B8: Spodoptera littoralis (Egyptian cotton leaf worm), uptake by lettuce roots from agar, eggs; conditions: 144 h, test rate of 12.5 ppm, 6 days after infestation, compound absorbed by lettuce roots, read-out: control in at least one of the three categories (mortality, anti-feeding, or growth inhibition)
Source text: Test compounds were applied by pipette from 10′000 ppm DMSO stock solutions into 24-well plates and mixed with agar. Lettuce seeds were placed onto the agar and the multi well plate was closed by another plate which contained also agar. After 7 days the compound was absorbed by the roots and the lettuce grew into the lid plate. The lettuce leaves were then cut off into the lid plate. Spodoptera eggs were pipetted through a plastic stencil onto a humid gel blotting paper and the lid plate was closed with it. The samples were assessed for mortality, anti-feedant effect and growth inhibition in comparison to untreated samples 6 days after infestation.
The following compounds gave an effect of at least 80% control in at least one of the three categories (mortality, anti-feeding, or growth inhibition) at a test rate of 12.5 ppm: P.58, P.93, P.94, P.95, P.130, P.254, P.256.

[9] = tested on: Plutella xylostella (Diamondback Moth); test: Example B9: Plutella xylostella (diamondback moth), artificial diet, eggs, 96-well; conditions: 216 h, application rate of 500 ppm, 9 days after infestation, read-out: control in mortality
Description: 96-well microtiter plates containing artificial diet were treated with aqueous test solutions, prepared from 10′000 ppm DMSO stock solutions, by a liquid handling robot. After drying, eggs (˜30 per well) were infested onto a netted lid which was suspended above the diet. The eggs hatch and L1 larvae move down to the diet. The samples were assessed for mortality 9 days after infestation.

C[C@H](Nc1ncnc2c(I)cc(C(F)(F)F)cc12)c1ncnn1-c1ncccn1 [P.95, 8-iodo-N-[(1S)-1-(2-pyrimidin-2-yl-1,2,4-triazol-3-yl)ethyl]-6-(trifluoromethyl)quinazolin-4-amine]
≥ 80%: percent control (mortality or growth inhibition) at 200 ppm [1] | percent control (mortality or growth inhibition) at 200 ppm [2] | percent control (mortality, anti-feedant effect or growth inhibition) at 200 ppm [3] | percent control (mortality or growth inhibition) at 200 ppm [4] | mortality at 200 ppm [5] | mortality at 12 ppm [6] | percent control (mortality, anti-feedant effect or growth inhibition) at 200 ppm [7] | percent control (mortality, anti-feeding or growth inhibition) at 12.5 ppm [8] | mortality at 500 ppm [9]
